Laboratory results from patent US9953129B2, “Patient stratification and determining clinical outcome for cancer patients” (Agency for Science, Technology and Research, priority 2011, dated 2018).

How the values were obtained:
Format in all cases: cell-based
[1] = tested on: NBT-II cells; assay: EMT spot migration assay, EGF induced EMT; conditions: for IC50: EMT induced by EGF (20 ng/mL), NBT-II cells, read-out: Cell Dispersion IC50 (nM) EGF
Description: (§1) Stably transfected mcherry fluorescence-labeled NET-II cells are maintained in DMEM supplemented with 10% fetal bovine serum (FBS, Thermo Scientific), 1 μg/mL puromycin (Sigma), 100 units/mL penicillin−100 units/mL streptomycin (1×pen-strep, Invitrogen) and 2 mM L-glutamine (Invitrogen).
(§2) Test compounds were purchased from various vendors (Selleck Chemicals, Sigma Aldrich, SYN|thesis Med Chem, and Tocris Bioscience). For screening studies, test compounds at both 0.25 mM and 1.0 mM concentrations in DMSO are prepared, each occupying a single well in columns 2 to 11 of 96-well V-bottom plates (Greiner). For dose response studies, selected test compounds were prepared in duplicate wells and serial diluted in DMSO, starting a 1.0 mM concentration. Compound stock plates were stored at −20° C. and thawed at room temperature before use.
(§3) A schematic for the spot migration assay is illustrated in FIG. 2. Cells were grown up to 80% confluency in tissue culture flasks prior to cell plating. Cells were first trypsinized, concentrated and re-suspended to a density of 5×10^6 cell/mL in CO2 independent medium (Invitrogen) supplemented with 10% FBS. The cell suspension was then evenly aliquoted into the wells of 2 columns of a 96-well V-bottom plate. Using a robotic liquid handling station (Bravo, Agilent Technologies), 0.5 μL of cell suspension was transferred from the 2 columns of the cell suspension-loaded plate and deposited into the center of the wells of 2 columns of a 96-well clear bottom, black assay plate (Corning). This process was repeated six times so that all 96 wells of the assay plate were deposited with a cell suspension spot. The plate was then sealed to minimize evaporation of the cell suspension spots and transferred to a 37° C., 5% CO2 incubator to allow for cells to attach to the culture surface. After one hour, the plate was gently washed with medium once to remove unattached cells, refreshed with 100 μL assay medium (DMEM supplemented with 10% FBS, 1× pen-strep and 2 mM L-glutamine), and then further incubated to allow for cell-cell contacts to establish in the cell colonies.
Four tiled, non-overlapping images were acquired around the center of each well, which were then stitched together during image analysis to generate a montage covering an area of 3.2 mm×3.2 mm. These images (T1) represent the initial state of the cell colonies before EMT induction.
After the T1 images are acquired, 1 μL of test compounds were transferred from compound stock plates and added to the assay plates. […] The cultures were then further incubated overnight.
The next day, 50 μL of growth factor containing medium was added each well of the assay plates. For each of the EGF, HGF or IGF-1 induced EMT spot migration assays, the final growth factor concentrations was adjusted in each well to be 20 ng/mL EGF (Sigma), 4 ng/mL HGF (Calbiochem) or 150 ng/mL IGF-1 (R&D Systems), respectively. The cultures were then incubated for another 24 hours, to allow for EMT and sufficient cell motility/dispersion to occur in the cell colonies.
Finally, the cell colonies were imaged again using the confocal microplate imager as described above. These images (T2) represent the final state of the cell colonies after compound treatment and EMT induction. The acquired T1 and T2 image sets for each assay plate were then subjected to image analysis.
Acquired image sets were loaded into image analysis routine developed using Metamorph software. Briefly, a complete image of the entire cell colony in a well was first obtained by stitching the four tiled, non-overlapping images together. Image analysis consists of counting the cell number and measuring the area occupied by the cells. The positive nuclei were segmented using a wavelet decomposition scheme to remove the photonic noise and the inhomogeneous background. A watershed procedure was used to refine the result by separating the confluent nuclei.

[2] = tested on: NBT-II cells; assay: EMT spot migration assay, IGF-1 induced EMT; conditions: EMT induced by IGF-1 (150 ng/mL), read-out: Cell Dispersion IC50 (nM) IGF-1
Description: as §1, §2
as §3, with “After one hour, the plate was gently washed with medium once to remove unattached cells, refreshed with 100 μL assay medium (DMEM supplemented with 10% FBS, 1× pen-strep and 2 mM L-glutamine), and then further incubated to allow for cell-cell contacts to establish in the cell colonies.” left out

[3] = tested on: NBT-II cells; assay: EMT spot migration assay, HGF induced EMT; conditions: EMT induced by HGF (4 ng/mL), read-out: Cell Dispersion IC50 (nM) HGF
Description: as §1, §2, §3
After 4 hours of incubation, the cell colonies for each well were imaged using a confocal microplate imager (MetaXpress Ultra, Molecular Devices) with 10× Plan Fluor objective, 561 nm laser excitation and 593/40 nm emission filter configuration. Four tiled, non-overlapping images were acquired around the center of each well, which were then stitched together during image analysis to generate a montage covering an area of 3.2 mm×3.2 mm. These images (T1) represent the initial state of the cell colonies before EMT induction.
After the T1 images are acquired, 1 μL of test compounds were transferred from compound stock plates and added to the assay plates. […]

[4] = tested on: SKOV3 cells; assay: EMT reversal assay (morphology, Western blot) in SKOV3; conditions: SKOV3, 2 μM for 3 days
Description: (§4) SKOV3, HEY and OVCAR-2 cells were maintained in RPMI (Invitrogen) supplemented with 10% fetal bovine serum (FBS, Thermo Scientific), 1 μg/mL puromycin (Sigma), 100 units/mL penicillin−100 units/mL streptomycin (1× pen-strep, Invitrogen) and 2 mM L-glutamine (Invitrogen). AZD0530 and BIBF-1120 were purchased from Selleck Chemicals and SYN|thesis Med Chem respectively. DMSO was used as a vehicle to dissolve both compounds. A stock concentration of 10 mM was prepared for both compounds and stored at −20° C. and aliquots were thawed at room temperature before use. Cells were grown up to 80% confluency in tissue culture flasks prior to cell plating. Cells were first trypsinized, concentrated and re-suspended to a density of 1×10^6 cell/mL in RPMI supplemented with 10% FBS. For each cell lines, 1×10^5 cells were plated onto 100 mm cell culture treated dishes (Nunc) for each condition. The cells were then allowed to attach to the culture dish surface and grow overnight in 37° C., 5% CO2 incubator. In drug conditions, the cells were then incubated with each of the compounds at a final concentration of 2 μM for 3 days to allow cell-cell contacts to establish in the dispersed culture. The medium was aspirated from the culture dishes and the cells were washed with PBS Ca^2+, Mg^2+ before they were snap-frozen with liquid nitrogen. Cells were lysed with RIPA buffer (Sigma) supplemented with protease inhibitor cocktail (Calbiochem) and phosphatase inhibitor cocktail (Roche). Protein concentration was measured using BCA (Pierce) protocol provided by the manufacturer. 8% polyacrylamide gels were used for the separation of proteins and transferred to PDVF membranes (Millipore). Membranes were blocked in 5% non-fat milk (Bio-rad) and incubated at 4 degree Celsius overnight with primary antibodies. E-cadherin antibody was purchased from BD laboratories, MMP13 antibody was purchased from Millipore and Tubulin was purchased from Sigma. […] The raw intensity of the protein bands were quantified using GeneTools software (Syngene).

[5] = tested on: HEY cells; assay: EMT reversal assay (morphology, Western blot) in HEY; conditions: 2 μM for 3 days
Description: as §4

[6] = tested on: OVCAR-2 cells; assay: EMT reversal assay (morphology, Western blot) in OVCAR-2; conditions: OVCAR-2, 2 μM for 3 days
Description: as §4

Compound | IC50 [1] [nM] | IC50 [2] [nM] | IC50 [3] [nM] | other results
COc1cc2ncnc(Nc3cccc(Cl)c3)c2cc1OC [AG 1478] | 350 |  |  | Cell Dispersion ratio ([1]; PosCtrl condition: [AG1478]=6.67 microM and [EGF]=20 ng/mL, NegCtrl 2.50±0.12): 1.48±0.05
Cc1cc(N2CCOCC2)cc2[nH]c(-c3c(NC[C@@H](O)c4cccc(Cl)c4)cc[nH]c3=O)nc12 [BMS 536924] | 6600 |  |  | 
CS(=O)(=O)N1CCN(Cc2cc3nc(-c4cccc5[nH]ncc45)nc(N4CCOCC4)c3s2)CC1 [GDC-0941] |  | 490 |  | 
Cn1cnc2c(F)c(Nc3ccc(Br)cc3Cl)c(C(=O)NOCCO)cc21 [AZD 6244] |  | 534 | 471 | 
Cn1cc(-c2ccc3nnc(C(F)(F)c4ccc5ncccc5c4)n3n2)cn1 [JNJ.38877605] |  |  | 43 | 
S=C(NCc1ccc2c(c1)OCO2)N1CCN(c2ncnc3c2oc2ccccc23)CC1 [MP-470] | 510 | 580 | 970 | 
Cc1ccc(-c2nn(C(C)(C)C)c3ncnc(N)c23)cc1 [PP 1] | 1720 |  |  | 
CN1CCN(CCOc2cc(OC3CCOCC3)c3c(Nc4c(Cl)ccc5c4OCO5)ncnc3c2)CC1 [AZD 0530] | 565 |  | 650 | Morphology after treatment ([4]; vs DMSO): restored the epithelioid-like morphology; E-cadherin protein levels (Western blot) ([4]; vs vehicle): greater increase; MMP13 protein levels (Western blot) ([4]; vs vehicle): greater reduction; Morphology after treatment ([5]; vs DMSO): restored the epithelioid-like morphology; E-cadherin protein levels (Western blot) ([5]; vs vehicle): greater increase; MMP13 protein levels (Western blot) ([5]; vs vehicle): greater reduction; Morphology after treatment ([6]; vs DMSO): formed tighter cobblestone-like cell colonies; E-cadherin protein levels (Western blot) ([6]; vs vehicle): increased; MMP13 protein levels (Western blot) ([6]; vs vehicle): reduced
COc1cc2ncnc(Nc3ccc(O)c(Br)c3)c2cc1OC [WHI-P 154] | 590 |  |  | 
